How the values were obtained:
[1] = system: OP50 E. coli; test: Bacterial growth assay (OD600); type: cell-based, Escherichia coli; details: 50 or 100 μg/mL; after 12 hours, 37° C
Experimental: The effects of test compounds on growth of the OP50 E. coli feed was assayed using optical density at 600 nm (OD600). Using standard microtitre plates, replicate wells of 200 μL of sterile Luria broth were inoculated with 2 μL of an overnight OP50 culture in addition to the stated final concentrations of ampicillin (Amp), Lip-1 and SIH. OD600 measures were taken after 12 hours in an EnSpire (PerkinElmer) spectrophotometric plate reader preset to 37° C., with 30 sec of 200 rpm orbital shaking every 10 minutes.
Data was averaged across duplicate experiments, each with eight replicate wells per treatment where a baseline of Luria broth without an inoculate was subtracted.

[2] = system: C. elegans; details: iron chelators, literature reports; cited from earlier work

Compound	growth of OP50 E. coli (OD600) [1]	effect on C. elegans lifespan as reported [2]
CC1(C)S[C@@H]2[C@H](NC(=O)[C@H](N)c3ccccc3)C(=O)N2[C@H]1C(=O)O [ampicillin]	completely suppressed bacterial growth	–
Cc1c(O)c(=O)ccn1C [deferiprone]	–	not to impact C. elegans lifespan
O=C(O)CN(CCN(CC(=O)O)CC(=O)O)CC(=O)O.[Ca] [CaEDTA, calcium-ethylenediaminetetraacetic acid]	–	minor (undisclosed) increase in lifespan

Reference: patent publication US20230172940A1, “METHODS OF EXTENDING LIFESPAN BY ADMINISTERING FERROPTOSIS INHIBITORS” (COLLABORATIVE MEDICINAL DEVELOPMENT, LLC, priority 2020, published 2023)
